How the values were obtained:
[1] = system: TFEB expression in cultured human airway epithelial cells (BEAS2B); test: Induction of TFEB expression in human airway epithelial cell; assay type: cell-based; conditions: 24 hours
Protocol: The effect of pemafibrate was examined with reference to a procedure described in a literature ([…], et al.: Autophagy (2019), 15(3): 510). That is, cultured human airway epithelial cells (BEAS2B) were cultured in a culture medium supplemented with 10 nM or 100 nM of pemafibrate for 24 hours, and were compared to a control (0 nM).

[2] = system: cigarette smoke-exposed COPD model; test: Cigarette smoke-exposed COPD model; assay type: in vivo, C57BL/6J mice
Text: The effect of pemafibrate was examined with reference to a procedure described in a literature ([…], et al.: Autophagy (2019), 15(3): 510)). That is, C57BL/6J mice were exposed to cigarette smoke with an exposure and inhalation system for small animals five times a week for 6 months. The mice were classified into a total of 4 groups as follows: the mice were classified into a normal diet group (Ctrl) and a 0.0003 w/w % pemafibrate mixed feed group (Pema), and the groups were each further classified into a room air group (RA) and a cigarette smoke exposure group (CS). First, a lung after the completion of the administration of pemafibrate was removed from the room air group (RA), and was evaluated for the expression of TFEB by being homogenized. […] Next, a bronchoalveolar lavage fluid was collected and evaluated for its cells. […] In addition, an alveolar diameter was measured and the degree of emphysema was evaluated.

[3] = system: p21 expression in human-derived cultured airway epithelial cells (HBEC) with cigarette smoke extract; test: Action on smoking stimulation-induced cell senescence (p21 expression); assay type: cell-based; conditions: 24 hours
Protocol: The effect of pemafibrate was examined with reference to a procedure described in a literature (Saito N, et al.: J Immunol (2019), 202: 1428). That is, human-derived cultured airway epithelial cells (HBEC) were cultured in a culture medium supplemented with 10 nM to 100 nM of pemafibrate together with 1% cigarette smoke extract (CSE) for 24 hours, and were compared to a control (0 nM).

## CC[C@@H](Oc1cccc(CN(CCCOc2ccc(OC)cc2)c2nc3ccccc3o2)c1)C(=O)O [pemafibrate, (R)-2-[3-[[N-(benzoxazol-2-yl)-N-3-(4-methoxyphenoxy)propyl]aminomethyl]phenoxy]butyric acid]
[1]; 10 nM or 100 nM pemafibrate, vs control (0 nM), FIG. 1
  expression of TFEB: increased in a manner dependent on the dose
[1]; 10 nM or 100 nM, vs control, p<0.05
  ratio of the expression amount of TFEB to the expression amount of ACTB: a significant difference was observed as compared to the control
[2]; cigarette smoke exposure (CS) 6 months, 0.0003 w/w % mixed feed, FIG. 5 and 6
  destruction of lung structure (alveolar diameter, degree of emphysema): the destruction of a lung structure due to the cigarette smoke exposure (CS) was suppressed
[2]; cigarette smoke exposure (CS) 6 months, 0.0003 w/w % mixed feed, FIG. 7
  cell senescence due to cigarette smoke exposure: the cell senescence due to the cigarette smoke exposure (CS) was suppressed
[2]; room air group (RA), 0.0003 w/w % pemafibrate mixed feed, 6 months, FIG. 3
  expression of TFEB in lung homogenate: an increase in expression of TFEB was observed
[3]; 10 nM to 100 nM pemafibrate with 1% CSE, FIG. 2
  expression of p21 increased by CSE stimulation: suppressed by pemafibrate in a dose-dependent manner
[3]; 1% CSE
  suppressing action on cell senescence: had a suppressing action on cell senescence
[3]; 1% CSE, p<0.05
  pemafibrate concentration giving significant difference in ratio of p21 to ACTB expression vs control: ≥ 20 nM
